Like-named read-outs stand apart in the source and are kept apart here.
How the values were obtained:
[1] = tested on: VN-MCC cell lines (MCC13, MCC26, UISO); assay: qHTS cell viability, VN-MCC cell lines as a group (mean AUC, VN.MCC.avg); format: cell-based, human
MKL-2 cells (VP-MCC) = assay: qHTS cell viability (CellTiter-Glo, 72 h; primary and follow-up small molecule screen); format: cell-based, human
UISO cells (VN-MCC) = assay: as above; format: cell-based, human
MKL-1 cells (VP-MCC) = assay: as above; format: cell-based, human
HACAT cells = assay: qHTS cell viability (CellTiter-Glo, 72 h; primary screen), control cell line; format: cell-based, human
MCC13 cells (VN-MCC) = assay: qHTS cell viability (CellTiter-Glo, 72 h; primary and follow-up small molecule screen); format: cell-based, human
[2] = tested on: VP-MCC cell lines (WAGA, MKL-1, MKL-2); assay: qHTS cell viability, VP-MCC cell lines as a group (mean AUC, VP.MCC.avg); format: cell-based, human
MCC26 cells (VN-MCC) = assay: qHTS cell viability (CellTiter-Glo, 72 h; primary and follow-up small molecule screen); format: cell-based, human
[3] = tested on: MCC cell lines (WAGA, MKL-1, MKL-2, MCC13, MCC26, UISO); assay: qHTS cell viability, all six MCC cell lines as a group (mean AUC, MCC.avg); format: cell-based, human
NIH-3T3 cells = assay: qHTS cell viability (CellTiter-Glo, 72 h; primary screen), control cell line; format: cell-based, mouse
WAGA cells (VP-MCC) = assay: qHTS cell viability (CellTiter-Glo, 72 h; primary and follow-up small molecule screen); format: cell-based, human
[4] = tested on: control cell lines (HACAT, HEK293T, CRL-7250, NIH-3T3); assay: qHTS cell viability, control cell lines as a group (mean AUC, Control.avg); format: cell-based
HEK293T cells = assay: qHTS cell viability (CellTiter-Glo, 72 h; primary screen), control cell line; format: cell-based, human
[5] = tested on: six MCC cell lines and four control cell lines; assay: qHTS cell viability, all 10 cell lines screened; format: cell-based
CRL-7250 cells = assay: qHTS cell viability (CellTiter-Glo, 72 h; primary screen), control cell line; format: cell-based
[6] = NPC library, mean AUC of VN-MCC cell lines
[7] = NPC library, qHTS dose-response AUC, MKL2
[8] = area under the dose-response curve, MKL-2 cells, AUC<450 = reduced viability
[9] = NPC library, qHTS dose-response AUC, UISO
[10] = area under the dose-response curve, UISO cells, AUC<450 = reduced viability
[11] = NPC library, qHTS dose-response AUC, MKL1
[12] = NPC library, qHTS dose-response AUC, HACAT control
[13] = area under the dose-response curve, HACAT control cells, AUC<450 = reduced viability
[14] = NPC library, qHTS dose-response AUC, MCC13
[15] = area under the dose-response curve, MCC13 cells, AUC<450 = reduced viability
[16] = area under the dose-response curve, MCC26 cells; AUC<450 = reduced viability
[17] = NPC library, mean AUC of six MCC cell lines
[18] = NPC library, qHTS dose-response AUC, NIH3T3 control
[19] = area under the dose-response curve, NIH3T3 control cells, AUC<450 = reduced viability
[20] = NPC library, qHTS dose-response AUC, WAGA
[21] = area under the dose-response curve, WAGA cells, AUC<450 = reduced viability
[22] = NPC library, mean AUC of control cell lines
[23] = area under the dose-response curve, HEK293T control cells; AUC<450 = reduced viability
[24] = NPC library, qHTS dose-response AUC, CRL7250 control
[25] = area under the dose-response curve, CRL7250 control cells, AUC<450 = reduced viability
[26] = NPC library, 8-point DRC, area under dose-response curve
[27] = NPC library, 8-point DRC, control cell line

CCCC(=O)OC[C@@H](OC(=O)CCC)[C@@H](OC(=O)CCC)[C@H](Cn1c2nc(=O)[nH]c(=O)c-2nc2cc(C)c(C)cc21)OC(=O)CCC [Riboflavin tetrabutyrate]
VN-MCC_Avg_AUC [1, 6]: 491.721
Control-VN-MCC ([1]; NPC library, therapeutic window: Control avg AUC minus VN-MCC avg AUC): -19.0227
MKL2_AUC (MKL-2 cells (VP-MCC); [7]): 430.163
MKL2_AUC (MKL-2 cells (VP-MCC); [8]): 430.163
UISO_AUC (UISO cells (VN-MCC); [9]): 492.96
UISO_AUC (UISO cells (VN-MCC); [10]): 492.96
MKL1_AUC (MKL-1 cells (VP-MCC); [11]): 416.714
MKL1_AUC (MKL-1 cells (VP-MCC); {}): 416.714
HACAT_AUC (HACAT cells; [12]): 497.126
HACAT_AUC (HACAT cells; [13]): 497.126
MCC13_AUC (MCC13 cells (VN-MCC); [14]): 481.481
MCC13_AUC (MCC13 cells (VN-MCC); [15]): 481.481
VP-MCC_Avg_AUC ([2]; NPC library, mean AUC of VP-MCC cell lines): 421.656
Control-VP-MCC ([2]; NPC library, therapeutic window: Control avg AUC minus VP-MCC avg AUC): 51.0422
MCC26_AUC (MCC26 cells (VN-MCC); NPC library; qHTS dose-response AUC, MCC26): 500.723
MCC26_AUC (MCC26 cells (VN-MCC); [16]): 500.723
MCC_Avg_AUC [3, 17]: 456.689
NIH3T3_AUC (NIH-3T3 cells; [18]): 473.017
NIH3T3_AUC (NIH-3T3 cells; [19]): 473.017
WAGA_AUC (WAGA cells (VP-MCC); [20]): 418.091
WAGA_AUC (WAGA cells (VP-MCC); [21]): 418.091
Control_Avg_AUC [4, 22]: 472.698
HEK293T_AUC (HEK293T cells; NPC library; qHTS dose-response AUC, HEK293T control): 450.178
HEK293T_AUC (HEK293T cells; [23]): 450.178
Control-MCC ([5]; NPC library, therapeutic window: Control avg AUC minus MCC avg AUC): 16.0097
CRL7250_AUC (CRL-7250 cells; [24]): 470.473
CRL7250_AUC (CRL-7250 cells; [25]): 470.473

CC(C)(O)/C=C/C(=O)[C@](C)(O)[C@H]1[C@H](O)C[C@@]2(C)[C@@H]3CC=C4[C@@H](C=C(O)C(=O)C4(C)C)[C@]3(C)C(=O)C[C@]12C [Cucurbitacin I]
Control-VN-MCC [1]: 16.3626
VN-MCC_Avg_AUC [1]: 297.712
MKL2_AUC (MKL-2 cells (VP-MCC)): 186.366
UISO_AUC (UISO cells (VN-MCC)): 252.668
MKL1_AUC (MKL-1 cells (VP-MCC)): 212.417
HACAT_AUC (HACAT cells): 326.184
MCC13_AUC (MCC13 cells (VN-MCC)): 297.405
Control-VP-MCC [2]: 109.051
VP-MCC_Avg_AUC [2]: 205.024
MCC26_AUC (MCC26 cells (VN-MCC)): 343.064
MCC_Avg_AUC [3]: 251.368
NIH3T3_AUC (NIH-3T3 cells): 387.943
WAGA_AUC (WAGA cells (VP-MCC)): 216.289
Control_Avg_AUC [4]: 314.075
HEK293T_AUC (HEK293T cells): 307.458
Control-MCC [5]: 62.7066
CRL7250_AUC (CRL-7250 cells): 234.715

CSc1ccc2c(c1)N(CCC1CCCCN1C)c1ccccc1S2 (stereo not shown) [Thioridazine]
Control-VN-MCC ([1]; Control AUC minus VN-MCC AUC): 56.3901
Control-VN-MCC ([1]; NPC library, Control AUC minus VN-MCC AUC (therapeutic window)): 56.3901
VN-MCC_Avg_AUC [1, 6]: 403.119
MKL2_AUC (MKL-2 cells (VP-MCC); [26]): 356.973
MKL2_AUC (MKL-2 cells (VP-MCC); [7]): 356.974
MKL2_AUC (MKL-2 cells (VP-MCC); [8]): 356.974
UISO_AUC (UISO cells (VN-MCC); [26]): 400.342
UISO_AUC (UISO cells (VN-MCC); [9]): 400.342
UISO_AUC (UISO cells (VN-MCC); [10]): 400.342
MKL1_AUC (MKL-1 cells (VP-MCC); [26]): 412.834
MKL1_AUC (MKL-1 cells (VP-MCC); [11]): 412.834
MKL1_AUC (MKL-1 cells (VP-MCC); area under the dose-response curve, MKL-1 cells, AUC<450 = reduced viability): 412.834
HACAT_AUC (HACAT cells; [27]): 453.674
HACAT_AUC (HACAT cells; [12]): 453.674
HACAT_AUC (HACAT cells; [13]): 453.674
MCC13_AUC (MCC13 cells (VN-MCC); [26]): 405.187
MCC13_AUC (MCC13 cells (VN-MCC); [14]): 405.187
MCC13_AUC (MCC13 cells (VN-MCC); [15]): 405.187
Control-VP-MCC ([2]; Control AUC minus VP-MCC AUC): 64.1836
Control-VP-MCC ([2]; NPC library, Control AUC minus VP-MCC AUC (therapeutic window)): 64.1836
MCC26_AUC (MCC26 cells (VN-MCC); [26]): 403.828
MCC26_AUC (MCC26 cells (VN-MCC); NPC library, qHTS dose-response AUC, MCC26): 403.828
MCC26_AUC (MCC26 cells (VN-MCC); [16]): 403.828
MCC_Avg_AUC ([3]; NPC library, mean AUC of all 6 MCC cell lines): 399.222
MCC_Avg_AUC [3, 17]: 399.222
NIH3T3_AUC (NIH-3T3 cells; [27]): 457.937
NIH3T3_AUC (NIH-3T3 cells; [18]): 457.938
NIH3T3_AUC (NIH-3T3 cells; [19]): 457.938
WAGA_AUC (WAGA cells (VP-MCC); [26]): 416.169
WAGA_AUC (WAGA cells (VP-MCC); [20]): 416.169
WAGA_AUC (WAGA cells (VP-MCC); [21]): 416.169
Control_Avg_AUC [4, 22]: 459.509
HEK293T_AUC (HEK293T cells; [27]): 452.051
HEK293T_AUC (HEK293T cells; NPC library, qHTS dose-response AUC, HEK293T control): 452.051
HEK293T_AUC (HEK293T cells; [23]): 452.051
Control-MCC ([5]; NPC library, Control AUC minus MCC AUC (therapeutic window)): 60.2868
CRL7250_AUC (CRL-7250 cells; [27]): 474.374
CRL7250_AUC (CRL-7250 cells; [24]): 474.374
CRL7250_AUC (CRL-7250 cells; [25]): 474.374

CN(C)CCc1c[nH]c2ccc(O)cc12 [Bufotenine]
Control-VN-MCC [1]: 64.2925
VN-MCC_Avg_AUC [1]: 429.178
MKL2_AUC (MKL-2 cells (VP-MCC)): 417.248
UISO_AUC (UISO cells (VN-MCC)): 423.411
MKL1_AUC (MKL-1 cells (VP-MCC)): 439.853
HACAT_AUC (HACAT cells): 494.192
MCC13_AUC (MCC13 cells (VN-MCC)): 457.919
Control-VP-MCC [2]: 66.7991
VP-MCC_Avg_AUC [2]: 426.671
MCC26_AUC (MCC26 cells (VN-MCC)): 406.205
MCC_Avg_AUC [3]: 427.925
NIH3T3_AUC (NIH-3T3 cells): 494.482
WAGA_AUC (WAGA cells (VP-MCC)): 422.913
Control_Avg_AUC [4]: 493.471
HEK293T_AUC (HEK293T cells): 488.2
Control-MCC [5]: 65.5458
CRL7250_AUC (CRL-7250 cells): 497.008
